From patent US10676468B2, “N-(3-heteroarylaryl)-4-arylarylcarboxamides and analogs as hedgehog pathway inhibitors and use thereof” (IMPACT Therapeutics, Inc., priority 2012, dated 2020)

What was measured:
Type in all cases: cell-based, mouse
[1] = test system: Hedgehog Signaling Pathway; assay: SAG-induced differentiation of C3H10T1/2 cells into osteoblastic cells, intracellular alkaline phosphatase activity; details: 1 μM SAG, 5 days, alkaline phosphatase activity (OD405), read-out: IC50 values of compounds that inhibit Hh pathway
Outline: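 Mouse C3H10T1/2 cells were induced with SAG and exposed to compound (10 μM to 1 nM) for 5 days at 37 °C. Cells were lysed in 0.2% Triton, and alkaline phosphatase activity was read as OD405 over 30 min at 37 °C in pH 9.8 substrate buffer. IC50 came from a non-linear fit of background-subtracted OD405 against log concentration.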

[2] = test system: Hedgehog Signaling Pathway; assay: SHH-induced differentiation of C3H10T1/2 cells into osteoblastic cells, intracellular alkaline phosphatase activity; details: 10 nM SHH-N, 5 days, alkaline phosphatase activity (OD405), read-out: IC50 values of compounds that inhibit Hh pathway
Outline: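 Mouse C3H10T1/2 cells were induced with 10 nM SHH-N alongside test compound (10 μM–10 nM) for 5 days at 37 °C. Cells were lysed in 0.2% Triton, and alkaline phosphatase activity was read at OD405 over 30 min at 37 °C with the background reading subtracted. IC50 came from a nonlinear fit against log concentration.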

[3] = test system: Hedgehog Signaling Pathway; assay: Gli-Luc reporter gene cell assay in C3H10T1/2/Gli-Luc cells stimulated with Shh; details: 30 nM Shh, luciferase activity (RLU), read-out: IC50 values of compounds that inhibit Hh pathway
Outline: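 C3H10T1/2 cells stably carrying Gli-responsive luciferase were seeded overnight, then treated 24 h at 37 °C with compound (7-point dilution series, DMSO control) plus Shh (30 nM in added medium). Lysate luciferase RLU fitted against log concentration to derive IC50.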

[4] = Mus musculus, C3H 10T1/2, 120 h

| IC50 [1, 4] [nM] | IC50 [2, 4] [nM] | IC50 ([3]; Mus musculus, C3H 10T1/2, 24 h) [nM] | IC50 [1] [nM] | IC50 [2] [nM] | IC50 ([3]; 24 hours) [nM] | SMILES |
| --- | --- | --- | --- | --- | --- | --- |
| 34 | 2.8 | 1.7 |  |  |  | Cc1cc(-c2ccc(C#N)cc2)ccc1C(=O)Nc1cnc(Cl)c(-c2nc3ccccc3[nH]2)c1 [Example 70, N-(5-(1H-benzo[d]imidazol-2-yl)-6-chloropyridin-3-yl)-3-methyl-4′-cyanobiphenyl-4-carboxamide] |
| 181 | 3.6 | 7.1 |  |  |  | Cc1cc(-c2ccc(C(F)(F)F)cc2)ccc1C(=O)Nc1cnc(C)c(-c2nc3ccccc3[nH]2)c1 [Example 71, N-(5-(1H-benzo[d]imidazol-2-yl)-6-methylpyridin-3-yl)-3-methyl-4′-(trifluoromethyl)biphenyl-4-carboxamide] |
| 100 | 2.7 | 6.6 |  |  |  | Cc1cc(-c2ccc(C(F)(F)F)cc2)ccc1C(=O)Nc1ccc(Cl)c(-c2ncc(-c3ccco3)[nH]2)c1 [Example 79, N-(3-(5-(furan-2-yl)-1H-imidazol-2-yl)-4-chlorophenyl)-3-methyl-4′-(trifluoromethyl)biphenyl-4-carboxamide] |
| 43 | 9.2 | 6.3 |  |  |  | Cc1cc(N2C[C@@H](C)O[C@@H](C)C2)ccc1C(=O)Nc1cnc(Cl)c(-c2nc3ccccc3[nH]2)c1 [Example 83, N-(5-(1H-benzo[d]imidazol-2-yl)-6-chloropyridin-3-yl)-2-methyl-4-((2S,6R)-2,6-dimethylmorpholino)benzamide] |
| 44 | 7.1 | 10 |  |  |  | Cc1nc(N2C[C@@H](C)O[C@@H](C)C2)ccc1C(=O)Nc1cnc(Cl)c(-c2nc3ccccc3[nH]2)c1 [Example 84, N-(5-(1H-benzo[d]imidazol-2-yl)-6-chloropyridin-3-yl)-2-methyl-6-((2S,6R)-2,6-dimethylmorpholino)nicotinamide] |
| 49 | 5.6 | 7.1 |  |  |  | Cc1cc(N2C[C@@H](C)O[C@@H](C)C2)ncc1C(=O)Nc1cnc(Cl)c(-c2nc3ccccc3[nH]2)c1 [Example 85, N-(5-(1H-benzo[d]imidazol-2-yl)-6-chloropyridin-3-yl)-4-methyl-6-((2S,6R)-2,6-dimethylmorpholino)nicotinamide] |
|  |  |  | 21 | 1.7 | 0.53 | Cc1cc(N2C[C@@H](C)N(C)[C@@H](C)C2)ccc1C(=O)Nc1cnc(Cl)c(-c2nc3ccccc3[nH]2)c1 [Example 87] |

More lines, now with the values behind:

| SMILES | IC50 [1, 4] [nM] | IC50 [2, 4] [nM] | IC50 ([3]; Mus musculus, C3H 10T1/2, 24 h) [nM] | IC50 [1] [nM] | IC50 [2] [nM] | IC50 ([3]; 24 hours) [nM] |
| --- | --- | --- | --- | --- | --- | --- |
| Cc1ccc(-c2cnc(-c3cc(NC(=O)c4ccc(-c5ccc(C(F)(F)F)cc5)cc4C)ccc3Cl)[nH]2)cc1 [Example 77, N-(3-(5-p-tolyl-1H-imidazol-2-yl)-4-chlorophenyl)-3-methyl-4′-(trifluoromethyl)biphenyl-4-carboxamide] | 139 | 1.9 | 7.1 |  |  |  |
| Cc1cc(-c2ccc(C(F)(F)F)cc2)ccc1C(=O)Nc1ccc(Cl)c(-c2ncc(-c3ccc(F)cc3)[nH]2)c1 [Example 78, N-(3-(5-(4-fluorophenyl)-1H-imidazol-2-yl)-4-chlorophenyl)-3-methyl-4′-(trifluoromethyl)biphenyl-4-carboxamide] | 166 | 4.8 | 15 |  |  |  |
| Cc1ccc(-c2cnc(-c3cc(NC(=O)c4ccc(N5C[C@@H](C)O[C@@H](C)C5)cc4C)ccc3Cl)[nH]2)cc1 [Example 80, N-(3-(5-p-tolyl-1H-imidazol-2-yl)-4-chlorophenyl)-2-methyl-4-((2S,6R)-2,6-dimethylmorpholino)benzamide] | 28 | 2.7 | 1.8 |  |  |  |
| Cc1cc(N2C[C@@H](C)N(C)[C@@H](C)C2)ccc1C(=O)Nc1ccc(Cl)c(-c2ncc(-c3cccs3)[nH]2)c1 [Example 81, N-(3-(5-(thiophen-2-yl)-1H-imidazol-2-yl)-4-chlorophenyl)-2-methyl-4-((3S,5R)-3,4,5-trimethylpiperazin-1-yl)benzamide] | 6.4 | 0.16 | 0.15 |  |  |  |
| C[C@@H]1CN(c2ccc(C(=O)Nc3ccc(Cl)c(-c4ncc(-c5cccs5)[nH]4)c3)c(Cl)c2)C[C@H](C)N1C [Example 82, N-(3-(5-(thiophen-2-yl)-1H-imidazol-2-yl)-4-chlorophenyl)-2-chloro-4-((3S,5R)-3,4,5-trimethylpiperazin-1-yl)benzamide] | 12 | 0.21 | 0.16 |  |  |  |
| C[C@@H]1CN(c2ccc(C(=O)Nc3cnc(Cl)c(-c4nc5ccccc5[nH]4)c3)cn2)C[C@H](C)N1C [Example 86, N-(5-(1H-benzo[d]imidazol-2-yl)-6-chloropyridin-3-yl)-6-((3S,5R)-3,4,5-trimethylpiperazin-1-yl)nicotinamide] | 40 | 1.7 | 0.94 |  |  |  |
| Cc1cc(N2C[C@@H](C)N(C)[C@@H](C)C2)ccc1C(=O)Nc1cnc(C)c(-c2nc3ccccc3[nH]2)c1 [Example 88, N-(5-(1H-benzo[d]imidazol-2-yl)-6-methylpyridin-3-yl)-2-methyl-4-((3S,5R)-3,4,5-trimethylpiperazin-1-yl)benzamide] | 119 | 11 | 6.7 |  |  |  |
| Cc1cc(C(=O)Nc2cnc(C)c(-c3nc4ccccc4[nH]3)c2)ccc1N1C[C@@H](C)N(C)[C@@H](C)C1 [Example 89, N-(5-(1H-benzo[d]imidazol-2-yl)-6-methylpyridin-3-yl)-3-methyl-4-((3S,5R)-3,4,5-trimethylpiperazin-1-yl)benzamide] | 381 | 55 | 21 |  |  |  |
| Cc1ncc(NC(=O)c2ccc(N3C[C@@H](C)N(C)[C@@H](C)C3)nc2)cc1-c1nc2ccccc2[nH]1 [Example 90, N-(5-(1H-benzo[d]imidazol-2-yl)-6-methylpyridin-3-yl)-6-((3S,5R)-3,4,5-trimethylpiperazin-1-yl)nicotinamide] | 461 | 35 | 25 |  |  |  |
| Cc1cc(N2C[C@@H](C)O[C@@H](C)C2)ncc1C(=O)Nc1ccc(Cl)c(-c2nc3ccccc3[nH]2)c1 [Example 91, N-(3-(1H-benzo[d]imidazol-2-yl)-4-chlorophenyl)-4-methyl-6-((2S,6R)-2,6-dimethylmorpholino)nicotinamide] | 52 | 6.8 | 7.8 |  |  |  |
| Cc1cc(N2C[C@@H](C)N(C)[C@@H](C)C2)ccc1C(=O)Nc1ccc(Cl)c(-c2nc3ccccc3[nH]2)c1 [Example 93, N-(3-(1H-benzo[d]imidazol-2-yl)-4-chlorophenyl)-2-methyl-4-((3S,5R)-3,4,5-trimethylpiperazin-1-yl)benzamide] | 32 | 0.69 | 0.5 |  |  |  |
| C[C@@H]1CN(c2ccc(C(=O)Nc3ccc(Cl)c(-c4nc5ccccc5[nH]4)c3)c(Cl)c2)C[C@H](C)N1C [Example 94, N-(3-(1H-benzo[d]imidazol-2-yl)-4-chlorophenyl)-2-chloro-4-((3S,5R)-3,4,5-trimethylpiperazin-1-yl)benzamide] | 16 | 0.81 | 0.63 |  |  |  |
| C[C@@H]1CN(c2ccc(C(=O)Nc3ccc(Cl)c(-c4nc5ccccc5[nH]4)c3)c(F)c2)C[C@H](C)N1C [Example 95, N-(3-(1H-benzo[d]imidazol-2-yl)-4-chlorophenyl)-2-fluoro-4-((3S,5R)-3,4,5-trimethylpiperazin-1-yl)benzamide] | 111 | 13 | 3.3 |  |  |  |
